What was measured:
Diabrotica balteata = Diabrotica balteata spray test; type: in vivo; settings: 168 h, beetle larvae on wheat, after 7 days, read-out: efficacy (wheat plant growth); for pest or weed control at 500 g/ha: 500 g/ha (=160 μg/cavity); for pest or weed control at 100 g/ha: 100 g/ha (=32 μg/cavity); for pest or weed control at 125 g/ha: 125 g/ha (=40 μg/cavity)
Method: Diabrotica balteata—Spray Test Solvent: 78 parts by weight of acetone • • 1.5 parts by weight of dimethylformamide Emulsifier: alkylaryl polyglycol ether
(§1) To produce a suitable active compound formulation, 1 part by weight of active compound is dissolved using the stated parts by weight of solvent and made up with water containing an emulsifier concentration of 1000 ppm until the desired concentration is attained. To produce further test concentrations, the formulation is diluted with emulsifier-containing water.
Pre-swollen wheat grains (Triticum aestivum) are incubated in a multiwell plate filled with agar and a little water for one day (5 seed grains per cavity). The germinated wheat grains are sprayed with an active compound formulation of the desired concentration. Subsequently, each cavity is infected with 10-20 beetle larvae of Diabrotica balteata.
After 7 days, the efficacy in % is determined. 100% means that all wheat plants have grown as in the untreated, uninfected control; 0% means that no wheat plant has grown.

Spodoptera frugiperda = Spodoptera frugiperda spray test; type: in vivo; settings: foliar, 168 h, 100 g/ha, maize leaf discs, after 7 days, read-out: efficacy (caterpillars killed)
Method: Spodoptera frugiperda—Spray Test Solvent: 78.0 parts by weight of acetone • • 1.5 parts by weight of dimethylformamide Emulsifier: alkylaryl polyglycol ether
as §1
Leaf discs of maize (Zea mays) are sprayed with an active compound formulation of the desired concentration and, after drying, populated with caterpillars of the fall armyworm (Spodoptera frugiperda).
After 7 days, the efficacy in % is determined. 100% means that all the caterpillars have been killed; 0% means that no caterpillar has been killed.

Row | SMILES | pest or weed control at 500 g/ha (Diabrotica balteata) [%] | pest or weed control at 100 g/ha (Spodoptera frugiperda) [%] | pest or weed control at 100 g/ha (Diabrotica balteata) [%] | pest or weed control at 125 g/ha (Diabrotica balteata) [%]
1 | CNc1nc(-c2ccc(NC(=O)N=C3SCC(=O)N3c3ccccc3C(C)C)cc2)nn1-c1ccc(OC(F)(F)F)cc1 [Compound I-026] | 80 | – | – | –
2 | CCNc1nc(-c2ccc(C=NNC(=S)Nc3ccccc3C(C)C)cc2)nn1-c1ccc(OC(F)(F)F)cc1 [Compound I-050] | 100 | 100 | 100 | –
3 | CCNc1nc(-c2ccc(NC(=O)N=C3SCC(=O)N3c3ccccc3C(C)C)cc2)nn1-c1ccc(OC(F)(F)F)cc1 [Compound I-042] | – | 100 | 100 | –
4 | CC(C)c1ccccc1NC(=S)NN=Cc1ccc(-c2nc(/N=C/N(C)C)n(-c3ccc(OC(F)(F)F)cc3)n2)cc1 [Compound I-061] | 80 | 100 | 80 | –
5 | C=CCNc1nc(-c2ccc(NC(=O)N=C3SCC(=O)N3c3ccccc3C(C)C)cc2)nn1-c1ccc(OC(F)(F)F)cc1 [Compound I-086] | – | 100 | 100 | –
6 | CC(C)c1ccccc1NC(=S)NN=Cc1ccc(-c2nc(N)n(-c3ccc(OC(F)(F)F)cc3)n2)cc1 [Compound I-021] | 100 | 100 | – | 100
7 | CC(C)c1ccccc1NC(=S)NN=Cc1ccc(-c2nc(NS(=O)(=O)C(F)F)n(-c3ccc(OC(F)(F)F)cc3)n2)cc1 [Compound I-028] | – | 83 | – | –
8 | CNc1nc(-c2ccc(NC(=O)N=C3SCC(=O)N3c3ccccc3C(C)C)cc2)nn1-c1ccc(OC(F)(F)C(F)(F)F)cc1 [Compound I-027] | 100 | 100 | – | 100
9 | CON(C)c1nc(-c2ccc(NC(=O)N=C3SCC(=O)N3c3ccccc3C(C)C)cc2)nn1-c1ccc(OC(F)(F)F)cc1 [Compound I-046] | 100 | 100 | 100 | –
10 | CC(C)c1ccccc1N1C(=O)CSC1=NC(=O)Nc1ccc(-c2nc(NC(=O)C3CC3)n(-c3ccc(OC(F)(F)F)cc3)n2)cc1 [Compound I-035] | 100 | 100 | 80 | –
11 | COCCNc1nc(-c2ccc(C=NN=C3SCC(=O)N3c3cc(OC)ccc3C(C)C)cc2)nn1-c1ccc(OC(F)(F)C(F)(F)F)cc1 [Compound I-130] | – | 100 | – | –
12 | CCS(=O)(=O)Nc1nc(-c2ccc(C=NNC(=S)Nc3ccccc3C(C)C)cc2)nn1-c1ccc(OC(F)(F)F)cc1 [Compound I-022] | 100 | 100 | – | 100
13 | COCCCNc1nc(-c2ccc(C=NN=C3SCC(=O)N3c3ccccc3C(C)C)cc2)nn1-c1ccc(OC(F)(F)F)cc1 [Compound I-077] | – | 100 | – | –
14 | CNc1nc(-c2ccc(C=NN=C3SCC(=O)N3c3ccccc3C(C)C)cc2C#N)nn1-c1ccc(OC(F)(F)F)cc1 [Compound I-124] | – | 100 | 100 | –
15 | CC(C)c1ccccc1NC(=S)NN=Cc1ccc(-c2nc(N3CCOCC3)n(-c3ccc(OC(F)(F)F)cc3)n2)cc1 [Compound I-019] | 100 | 100 | – | 100
16 | CC(C)c1ccccc1NC(=S)NN=Cc1ccc(-c2nc(NCCC#N)n(-c3ccc(OC(F)(F)F)cc3)n2)cc1 [Compound I-094] | – | 100 | 100 | –
17 | CC(C)c1ccccc1N1C(=O)CSC1=NC(=O)Nc1ccc(-c2nc(NC(=O)C(F)F)n(-c3ccc(OC(F)(F)F)cc3)n2)cc1 [Compound I-038] | 100 | 100 | 80 | –
18 | CNc1nc(-c2ccc(C=NNC(=S)Nc3cc(C)ccc3C(C)C)cc2)nn1-c1ccc(OC(F)(F)F)cc1 [Compound I-070] | – | 100 | 100 | –
19 | COc1ccc(C(C)C)c(NC(=S)NN=Cc2ccc(-c3nc(NCCC#N)n(-c4ccc(OC(F)(F)C(F)(F)F)cc4)n3)cc2)c1 [Compound I-137] | – | 100 | – | –
20 | CCOCCNc1nc(-c2ccc(C=NN=C3SCC(=O)N3c3ccccc3C(C)C)cc2)nn1-c1ccc(OC(F)(F)F)cc1 [Compound I-059] | – | 100 | – | –
21 | CNc1nc(-c2ccc(C=NN=C3SCC(=O)N3c3ccccc3C(C)C)c(Cl)c2)nn1-c1ccc(OC(F)(F)F)cc1 [Compound I-115] | – | 100 | – | –
22 | CC(C)c1ccccc1N1C(=O)CSC1=NN=Cc1ccc(-c2nc(NCCC#N)n(-c3ccc(OC(F)(F)C(F)(F)F)cc3)n2)cc1 [Compound I-141] | – | 100 | – | –
23 | COc1ccc(C(C)C)c(NC(=S)NN=Cc2ccc(-c3nc(NCCO)n(-c4ccc(OC(F)(F)C(F)(F)F)cc4)n3)cc2)c1 [Compound I-134] | – | 100 | – | –

Row | SMILES | pest or weed control at 500 g/ha (Diabrotica balteata) [%] | pest or weed control at 100 g/ha (Spodoptera frugiperda) [%] | pest or weed control at 100 g/ha (Diabrotica balteata) [%] | pest or weed control at 125 g/ha (Diabrotica balteata) [%]
24 | CNc1nc(-c2ccc(C=NN=C3SCC(=O)N3c3ccccc3C(C)C)cc2C)nn1-c1ccc(OC(F)(F)F)cc1 [Compound I-121] | – | 100 | – | –
25 | COc1ccc(C(C)C)c(N2C(=O)CSC2=NN=Cc2ccc(-c3nc(NCCO)n(-c4ccc(OC(F)(F)C(F)(F)F)cc4)n3)cc2)c1 [Compound I-139] | – | 100 | – | –
26 | CC(C)c1ccccc1NC(=S)NN=Cc1ccc(-c2nc(NCCC#N)n(-c3ccc(OC(F)(F)C(F)(F)F)cc3)n2)cc1 [Compound I-136] | – | 100 | – | –
27 | COCCNc1nc(-c2ccc(C=NNC(=S)Nc3ccccc3C(C)C)cc2)nn1-c1ccc(OC(F)(F)C(F)(F)F)cc1 [Compound I-132] | – | 100 | – | –
28 | CC(C)c1ccccc1N1C(=O)CSC1=NN=Cc1ccc(-c2nc(NCCC#N)n(-c3ccc(OC(F)(F)F)cc3)n2)cc1 [Compound I-092] | – | 100 | – | –
29 | CC(C)c1ccccc1N1C(=O)CSC1=NC(=O)Nc1ccc(-c2nc(-n3ccnc3)n(-c3ccc(OC(F)(F)F)cc3)n2)cc1 [Compound I-031] | – | 100 | – | –
30 | COc1ccc(C(C)C)c(N2C(=O)CSC2=NC(=O)Nc2ccc(-c3nc(NCCC#N)n(-c4ccc(OC(F)(F)C(F)(F)F)cc4)n3)cc2)c1 [Compound I-140] | – | 100 | – | –
31 | CCOC(CNc1nc(-c2ccc(C=NNC(=S)Nc3ccccc3C(C)C)cc2)nn1-c1ccc(OC(F)(F)F)cc1)OCC [Compound I-074] | – | 100 | – | –
32 | COCCCNc1nc(-c2ccc(NC(=O)N=C3SCC(=O)N3c3ccccc3C(C)C)cc2)nn1-c1ccc(OC(F)(F)F)cc1 [Compound I-081] | – | 100 | – | –
33 | CC(C)c1ccccc1N1C(=O)CSC1=NN=Cc1ccc(-c2nc(NC3CSC3)n(-c3ccc(OC(F)(F)C(F)(F)F)cc3)n2)cc1 [Compound I-101] | – | 83 | – | –
34 | CC(C)c1ccccc1NC(=S)NN=Cc1ccc(-c2nc(NCCO)n(-c3ccc(OC(F)(F)F)cc3)n2)cc1 [Compound I-078] | – | 100 | – | –
35 | COCCNc1nc(-c2ccc(NC(=O)N=C3SCC(=O)N3c3ccccc3C(C)C)cc2)nn1-c1ccc(OC(F)(F)C(F)(F)F)cc1 [Compound I-128] | – | 100 | – | –
36 | CC(C)c1ccccc1N1C(=O)CSC1=NN=Cc1ccc(-c2nc(NCCO)n(-c3ccc(OC(F)(F)C(F)(F)F)cc3)n2)cc1 [Compound I-138] | – | 100 | – | –
37 | CC(C)c1ccccc1NC(=S)NN=Cc1ccc(-c2nc(NCCO)n(-c3ccc(OC(F)(F)C(F)(F)F)cc3)n2)cc1 [Compound I-135] | – | 100 | – | –
38 | COCCNc1nc(-c2ccc(C=NNC(=S)Nc3cc(OC)ccc3C(C)C)cc2)nn1-c1ccc(OC(F)(F)C(F)(F)F)cc1 [Compound I-133] | – | 100 | – | –
39 | CC(C)c1ccccc1N1C(=O)CSC1=NN=Cc1ccc(-c2nc(NC3COC3)n(-c3ccc(OC(F)(F)F)cc3)n2)cc1 [Compound I-053] | – | 100 | – | –
40 | COc1ccc(C(C)C)c(N2C(=O)CSC2=NN=Cc2ccc(-c3nc(NCCC#N)n(-c4ccc(OC(F)(F)C(F)(F)F)cc4)n3)cc2)c1 [Compound I-142] | – | 100 | – | –
41 | COCCNc1nc(-c2ccc(C=NN=C3SCC(=O)N3c3ccccc3C(C)C)cc2)nn1-c1ccc(OC(F)(F)C(F)(F)F)cc1 [Compound I-129] | – | 100 | – | –
42 | CC(=O)Nc1nc(-c2ccc(C=NNC(=S)Nc3c(C)cccc3C)cc2)nn1-c1ccc(OC(F)(F)F)cc1 [Compound I-011] | – | 100 | – | –
43 | COCCNc1nc(-c2ccc(C=NN=C3SCC(=O)N3c3ccccc3C(C)C)cc2)nn1-c1ccc(OC(F)(F)F)cc1 [Compound I-076] | – | 100 | – | –
44 | COCCNc1nc(-c2ccc(NC(=O)N=C3SCC(=O)N3c3cc(OC)ccc3C(C)C)cc2)nn1-c1ccc(OC(F)(F)C(F)(F)F)cc1 [Compound I-131] | – | 100 | – | –
45 | CC(C)c1ccccc1N1C(=O)CSC1=NN=Cc1ccc(-c2nc(NC3CCOC3)n(-c3ccc(OC(F)(F)F)cc3)n2)cc1 (stereo not drawn) [Compound I-069] | – | 100 | – | –
46 | CC(C)c1ccccc1N1C(=O)CSC1=NN=Cc1ccc(-c2nc(NCCO)n(-c3ccc(OC(F)(F)F)cc3)n2)cc1 [Compound I-089] | – | 100 | – | –

— US20220289691A1, “5-AMINO-SUBSTITUTED PYRAZOLES AND TRIAZOLES AS PEST CONTROL AGENTS” (Bayer Aktiengesellschaft, priority 2019, published 2022)
